Experimental data taken from the supplement of paper PMC10307832.

Compound: C(C(=O)C(=O)O)Br [Bromopyruvate] + CCNC(=O)c1noc(-c2cc(C(C)C)c(O)cc2O)c1-c1ccc(CN2CCOCC2)cc1 [Luminespib] (partner 0.01 µM)
Test: relative viability (nuclei count vs DMSO), 5 days (fraction); higher = more cells survive
Details: first compound 1 µM
Outline: (§1)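 Lung cancer cell lines in 1536-well plates got either a single drug or a fixed anchor-drug dose together with five library-drug doses (not always all listed) in √10 steps, by pin tool, on the day after seeding. Nuclei were counted after 5 days, and relative viability is the treated-to-vehicle ratio of nuclei counts. Values are medians of duplicate plates.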

Cell Line | relative viability
NCI-H358 | 0.429
NCI-H661 | 0.882
RERF-LC-KJ | 1.28

Same assay, conditions: first compound 3.162 µM

Cell Line | relative viability
NCI-H358 | 0.397
NCI-H661 | 0.969
RERF-LC-KJ | 1.32

Same assay, conditions: first compound 10 µM

Cell Line | relative viability
NCI-H358 | 0.554
NCI-H661 | 0.964
RERF-LC-KJ | 1.2

Same assay, conditions: first compound 31.62 µM

Cell Line | relative viability
NCI-H358 | 0.322
NCI-H661 | 0.91
RERF-LC-KJ | 1.21

Same assay, conditions: first compound 100 µM

Cell Line | relative viability
NCI-H358 | 0.31
NCI-H661 | 0.892
RERF-LC-KJ | 1.23

Compound: CC(O)(CS(=O)(=O)c1ccc(F)cc1)C(=O)Nc1ccc(C#N)c(C(F)(F)F)c1 [Bicalutamide] + Cc1cc(Nc2cc(N3CCN(C)CC3)nc(Sc3ccc(NC(=O)C4CC4)cc3)n2)n[nH]1 [Tozasertib] (partner 0.1 µM)
Test: as above
Details: first compound 0.08 µM
Outline: as §1

Cell Line | relative viability
NCI-H358 | 0.136
NCI-H661 | 0.367
RERF-LC-KJ | 0.48

Same assay, conditions: first compound 0.253 µM

Cell Line | relative viability
NCI-H358 | 0.108
NCI-H661 | 0.355
RERF-LC-KJ | 0.521

Same assay, conditions: first compound 0.8 µM

Cell Line | relative viability
NCI-H358 | 0.108
NCI-H661 | 0.362
RERF-LC-KJ | 0.494

Same assay, conditions: first compound 2.53 µM

Cell Line | relative viability
NCI-H358 | 0.105
NCI-H661 | 0.359
RERF-LC-KJ | 0.338

Compound: C(C(=O)C(=O)O)Br [Bromopyruvate] + O=C(CCCCCCC(=O)Nc1ccccc1)NO [Vorinostat] (partner 1 µM)
Test: as above
Details: first compound 1 µM
Outline: as §1

Cell Line | relative viability
NCI-H358 | 0.77
NCI-H661 | 0.767
RERF-LC-KJ | 0.707

Same assay, conditions: first compound 3.162 µM

Cell Line | relative viability
NCI-H358 | 0.607
NCI-H661 | 0.798
RERF-LC-KJ | 0.655

Same assay, conditions: first compound 10 µM

Cell Line | relative viability
NCI-H358 | 0.626
NCI-H661 | 0.779
RERF-LC-KJ | 0.673

Same assay, conditions: first compound 31.62 µM

Cell Line | relative viability
NCI-H358 | 0.541
NCI-H661 | 0.712
RERF-LC-KJ | 0.626

Same assay, conditions: first compound 100 µM

Cell Line | relative viability
NCI-H358 | 0.505
NCI-H661 | 0.712
RERF-LC-KJ | 0.516

Compound: C(C(=O)C(=O)O)Br [Bromopyruvate] + Cc1nc(Nc2ncc(C(=O)Nc3c(C)cccc3Cl)s2)cc(N2CCN(CCO)CC2)n1 [Dasatinib] (partner 0.075 µM)
Test: as above
Details: first compound 1 µM
Outline: as §1

Cell Line | relative viability
NCI-H358 | 0.197
NCI-H661 | 0.785
RERF-LC-KJ | 0.882

Same assay, conditions: first compound 3.162 µM

Cell Line | relative viability
NCI-H358 | 0.149
NCI-H661 | 1.02
RERF-LC-KJ | 0.797

Same assay, conditions: first compound 10 µM

Cell Line | relative viability
NCI-H358 | 0.143
NCI-H661 | 0.929
RERF-LC-KJ | 1.04

Same assay, conditions: first compound 31.62 µM

Cell Line | relative viability
NCI-H358 | 0.171
NCI-H661 | 0.943
RERF-LC-KJ | 0.878

Same assay, conditions: first compound 100 µM

Cell Line | relative viability
NCI-H358 | 0.167
NCI-H661 | 1.05
RERF-LC-KJ | 0.73
